Tests used:
Type in all cases: in vivo
ICH mice [1] = test: Brain water content in ICH mouse model; details: 5 mg/kg/daily i.p., first dose 1 h after ICH onset, 24 h, vs vehicle
Excerpt: (§1) The intracerebral hemorrhage (ICH) model in mice was used to illustrate the protective benefits of the compounds of this disclosure, and FIG. 1 depicts the procedure in preparing this model. ICH was induced in C57 B/L6 male mice by the injection of an autologous blood or collagenase as previously described (Lauer et al., Circulation 124: 1654-1662 (2011); Rynkowski et al., Nat. Protoc. 3:122-128 (2008)). Mice were anesthetized using isoflurane inhalation and fixed on a stereotactic frame. A burr hole was drilled on the right side of the skull at 2.3 mm lateral to the midline and 0.5 mm anterior to the bregma. For the autologous blood model, 30 μl of non-heparinized blood was withdrawn from the angular vein. The first 5 μl blood was injected at a depth of 3 mm beneath the hole, and the rest 25 μl blood were injected at 3.7 mm beneath the hole with a rate of 1 μl/min. In the collagenase model, 0.038 U of the bacterial collagenase (in 0.5 μl saline) was infused to the striatum (0.5 mm anterior, 2.3 mm right lateral, and 3.5 mm deep relative to bregma) at a speed of 0.5 μl/min. Mice on the sham control were injected with an equal volume of saline. Throughout the procedure, the body temperature was maintained at 37° C. with a homeothermic blanket. After the surgery, mice were under observation with free access to food and water. […]
Brain water content was measured at day 1 after ICH. […]

ICH mice [2] = test: Neurological function assessment (mNSS, corner-turning test, rotarod test) in ICH mouse model; details: vs vehicle
Excerpt: as §1, with “blanket.” for “blanket. After the surgery, mice were under observation with free access to food and water.”
The neurological function assessment was performed by investigators who were blinded to the two treatment groups. The modified Neurological Severity Score (mNSS), corner-turning test, and rotarod test were conducted to evaluate the neuro-deficits of the ICH mice at defined time points as described (Li et al., Proc. Nat. Acad. Sci. USA 114:E396-E405 (2017)). mice were evaluated for motor function (muscle and abnormal movement), sensory (visual, tactile, and proprioceptive), and reflexes (pinna, corneal, startle reflexes). […] The corner-turning test was used to evaluate the sensorimotor damage to quantify the turning preference (right or left) upon approaching a 30° corner. […] The percentage of ipsilateral turns was then calculated. […] The duration of each mouse on the rod was recorded. […]

ICH mice [3] = test: Brain infiltrating neutrophils by flow cytometry in ICH mouse model; details: vs vehicle
Excerpt: as §1, with “μl/min.” for “μl/min. Mice on the sham control were injected with an equal volume of saline. Throughout the procedure, the body temperature was maintained at 37° C. with a homeothermic blanket. After the surgery, mice were under observation with free access to food and water.”
Single cell suspension of brain tissues was prepared and stained with fluorochrome-conjugated antibodies. […] Flow cytometric measurements were performed on a FACS Aria III (BD Bioscience) and analyzed using Flowjo 7.6 software (Informer Technologies, Ashland, OR, USA).

[4] = day 1 and day 3 after ICH, 5 mg/kg i.p.

Cc1ccc(O)c(-c2[nH]nc3c2C(c2ccc(C(F)(F)F)cc2)N(C2CCOCC2)C3=O)c1 (racemic) [Compound 1, Rac-3-(2-hydroxy-5-methylphenyl)-5-(tetrahydro-2H-pyran-4-yl)-4-(4-(trifluoromethyl)phenyl)-4,5-dihydropyrrolo[3,4-c]pyrazol-6(2H)-one]
total brain water content (ICH mice [1]): significantly reduced | neurological outcomes (ICH mice [2]; 5 mg/kg/daily i.p., first dose 1 h after ICH onset): improved | locomotor function scores (corner turn test, rotarod test) (ICH mice [2]; [4]): improved | modified neurological symptom score (mNSS) (ICH mice [2]; [4]): improved | reduction of total number of brain-infiltrated neutrophils (ICH mice [3]; Day 3, 5 mg/kg i.p.): 54% | reduction of total number of brain-infiltrated neutrophils (ICH mice [3]; Day-1, 5 mg/kg i.p.): 47%
